# Measurements published in patent US20150344426A1, “COMPOUNDS AND THERAPEUTIC USES THEREOF” (ALZHEIMER'S INSTITUTE OF AMERICA, INC., priority 2012, published 2015).
# Values joined by “and” are separate entries in the source; they are usually repeats but may differ in a detail not shown here. Equal values may be shown once. Read-outs that look alike come from different tables or passages of the source.
# Columns and labels:
# [1] = system: HT1080 human fibrosarcoma cancer cells; experiment: Anti-tumor activity in HT1080 human fibrosarcoma xenograft with twice daily dosing; format: in vivo; conditions: for tumor regression: by Day 8
# Protocol: One million HT1080 cells were implanted subcutaneously in the right flank of female nude mice (Crl:NU-Fox1^nu). When the median tumor volume (MTV) was approximately 209 mm^3, mice were randomized into four cohorts of ten animals. […] All cohorts were dosed twice daily for 7 days. The mice were observed daily for mortality and signs of toxicity. Tumor volumes and body weights were determined from Days 1 to 22. The results are depicted in FIG. 4.
# [2] = Experiment 1: hepatic portal vein samples of rats after oral Example Compound 35; format: in vivo, female Sprague-Dawley rats; conditions: 20 mg/kg, portal vein; for [Par. Cmp. A]: listed as Par. Cmp. A
# Excerpt: It is believed that Example Compound 35 metabolizes in vivo into Parent Compound A (i.e., it is believed that Example Compound 35 is a prodrug of Parent Compound A). The objective of this study was to determine the concentration of Example Compound 35 and Parent Compound A in hepatic portal vein samples of female Sprague-Dawley rats following oral administration of only Example Compound 35, and to quantify the extent of transport into hepatic portal circulation, if any, of Example Compound 35. A second objective was to determine the relative bioavailability of Parent Compound A in the portal vein following oral administration of Example Compound 35.
# Experiment 1. Three female Sprague Dawley rats (200-215 g, Harlan Laboratories, Indianapolis, Ind.) with cannulae implanted surgically in the portal vein for blood sampling were used in this study. Example Compound 35, formulated in 50 mM Glycine pH 3.0 with 0.5% HPMC and 0.05% Tween-80, was administered by oral gavage (PO) at a dose of 20 mg/kg in a volume of 2 mL/kg. This dose is the molar equivalent of a 13.5 mg/kg dose of Parent Compound A. Portal blood samples were collected through the portal vein cannula from each animal at 0.25, 0.5, 1, 2, 4, and 8 hours following administration of compound. Samples were split into two fractions and one was supplemented with citrate buffer (final concentration 100 mM, pH 3.0) to stabilize Example Compound 35 and stop conversion of Example Compound 35 to Parent Compound A ex vivo during analysis. Samples were then processed to generate plasma and analyzed for Example Compound 35 by LC-MS/MS. Plasma derived from the second aliquot of blood was analyzed for Parent Compound A.
# Pharmacokinetic parameters estimated for Parent Compound A included the maximum observed drug concentration (Cmax), time of maximum observed drug concentration (Tmax), apparent terminal half-life (t1/2), area under the concentration-time curve from time zero to 8 hours postdose (AUC(0-8)), and area under the concentration-time curve extrapolated to infinity (AUC(0-inf)). The bioavailability (% F) of Parent Compound A in portal vein samples relative to IV administration was also estimated.
# Plasma samples were analyzed for Example Compound 35 or Parent Compound A concentration using a LC-MS/MS method. All sample runs met standard acceptance criteria for discovery purposes, and were based on a standard curve containing at least 7 points. At least half of quality control samples at each of the three concentrations tested, and two thirds of the entire quality control sample pool, were within 15% of their theoretical value. The r^2 value for each standard curve was ≧0.99. The quantitation range for the Example Compound 35 and Parent Compound A assays was 1 to 100 ng/mL and 5 to 2,500 ng/mL, respectively, using a 0.05 mL sample volume.
# The data were entered into the PK software package WinNonlin® version 5.1.1. A complete data check was conducted to verify the accuracy of data entry.
# Pharmacokinetic parameters were estimated on median plasma concentrations using extravascular input (PO). Nominal collection times after administration of compound were used for PK analyses. The use of a non-compartmental model provided an adequate fit of the data. Pharmacokinetic parameters estimated for Parent Compound A included the maximum observed drug concentration (Cmax), time of maximum observed drug concentration (Tmax), apparent terminal half-life (t1/2), apparent volume of distribution (Vz obs), apparent clearance (C1 obs), area under the concentration-time curve from time zero to 8 hours postdose of Example Compound 35 […], and area under the concentration-time curve extrapolated to infinity (AUC(0-inf)). Example Compound 35 was detected in only one 0.25 hour hepatic portal vein sample at 1.29 ng/mL. Any Example Compound 35 present in all of the other samples was below the quantitation limit of 1 ng/mL and pharmacokinetic parameters were not determined for those samples. […]
structure (smiles),measurement,setting,value
"O=C(NCc1cccnc1)Nc1ccc(OCCc2ccccc2-c2ccccc2)cc1 [Parent Compound A, 1-{4-[2-(Biphenyl-2-yl)ethoxy]phenyl}-3-(pyridin-3-ylmethyl)urea]",tumor growth inhibition relative to vehicle,"[1]; 3 mg/kg orally twice daily for seven days, Day 21",60%
same,MTV increase,"[1]; 3 mg/kg orally twice daily for seven days, end of dosing, Day 9",221%
same,MTV increase,"[1]; 3 mg/kg orally twice daily for seven days, end of the study, Day 21",622%
same,tumor growth inhibition relative to vehicle,"[1]; 4 mg/kg orally twice daily for seven days, Day 21",81%
same,tumor regression,[1]; 4 mg/kg orally twice daily for seven days,13%
same,MTV as % of the initial value,"[1]; 4 mg/kg orally twice daily for seven days, end of dosing, Day 9",87%
same,MTV increase,"[1]; 4 mg/kg orally twice daily for seven days, end of the study, Day 21",296%
same,tumor growth inhibition relative to vehicle,"[1]; 5 mg/kg orally twice daily for seven days, Day 21",85%
same,tumor regression,[1]; 5 mg/kg orally twice daily for seven days,22%
same,MTV as % of the initial value,"[1]; 5 mg/kg orally twice daily for seven days, end of dosing, Day 9",78%
same,MTV increase,"[1]; 5 mg/kg orally twice daily for seven days, end of the study, Day 21",235%
same,tumor growth inhibition relative to vehicle,"[1]; 7 mg/kg orally twice daily for seven days, Day 21",89%
same,tumor regression,[1]; 7 mg/kg orally twice daily for seven days,78%
same,MTV as % of the initial value,"[1]; 7 mg/kg orally twice daily for seven days, end of dosing, Day 9",22%
same,MTV increase,"[1]; 7 mg/kg orally twice daily for seven days, end of the study, Day 21",175%
same,tumor growth inhibition relative to vehicle,"[1]; 9 mg/kg orally twice daily for seven days, Day 21",95%
same,tumor regression,[1]; 9 mg/kg orally twice daily for seven days,61%
same,MTV as % of the initial value,"[1]; 9 mg/kg orally twice daily for seven days, end of dosing, Day 9",39%
same,MTV increase,"[1]; 9 mg/kg orally twice daily for seven days, end of the study, Day 21",85%
same,"animals with tumor volumes exceeding 1,500 mm^3 euthanized","[1]; Parent Compound A study, 3 mg/kg, cohort of ten",three
same,deaths,"[1]; Parent Compound A study, 4 mg/kg, cohort of ten, two found dead, one euthanized for tumor volume",three
same,animals with no detectable tumor by the end of the study,"[1]; Parent Compound A study, 5 mg/kg, cohort of ten",One
same,animals with no detectable tumor by the end of the study,"[1]; Parent Compound A study, 7 mg/kg, cohort of ten",One
same,animals with no detectable tumor by the end of the study,"[1]; Parent Compound A study, 9 mg/kg, cohort of ten",One
same,anti-tumor activity in the HT1080 xenograft model (summary statement),"[1]; administered orally, twice daily, all doses tested",significant anti-tumor activity
same,maximal reduction in median body weight,"[1]; over the course of the study, all doses tested, orally twice daily",< 10 % of the initial weight
same,Tolerability,"[1]; xenograft mice, all doses tested, orally twice daily",well tolerated
same,concentration at 0.25 h,"[2]; female, Sprague-Dawley, rat, plasma (hepatic portal vein), po, 0.25 hr after oral Example Compound 35 20 mg/kg, read-out: Median [Par. Cmp. A]",961 ng/mL
same,concentration at 0.5 h,"[2]; female, Sprague-Dawley, rat, plasma (hepatic portal vein), po, 0.5 hr after oral Example Compound 35 20 mg/kg, read-out: Median [Par. Cmp. A]",2820 ng/mL
same,concentration at 1 h,"[2]; female, Sprague-Dawley, rat, plasma (hepatic portal vein), po, 1 hr after oral Example Compound 35 20 mg/kg, read-out: Median [Par. Cmp. A]",2460 ng/mL
same,concentration at 2 h,"[2]; female, Sprague-Dawley, rat, plasma (hepatic portal vein), po, 2 hr after oral Example Compound 35 20 mg/kg, individual rats, read-out: [Par. Cmp. A]",1800 ng/mL
same,concentration at 2 h,"[2]; female, Sprague-Dawley, rat, plasma (hepatic portal vein), po, 2 hr after oral Example Compound 35 20 mg/kg, read-out: Median [Par. Cmp. A]",1930 ng/mL
same,concentration at 4 h,"[2]; female, Sprague-Dawley, rat, plasma (hepatic portal vein), po, 4 hr after oral Example Compound 35 20 mg/kg, read-out: Median [Par. Cmp. A]",1000 ng/mL
same,concentration at 8 h,"[2]; female, Sprague-Dawley, rat, plasma (hepatic portal vein), po, 8 hr after oral Example Compound 35 20 mg/kg, read-out: Median [Par. Cmp. A]",41 ng/mL
same,[Par. Cmp. A],"[2]; 0.25 hr after oral Example Compound 35 20 mg/kg, individual rats","417.4 ng/mL and 2,306.7 ng/mL and 961.4 ng/mL"
same,[Par. Cmp. A],"[2]; 0.5 hr after oral Example Compound 35 20 mg/kg, individual rats","2,819.4 ng/mL and 2,818.9 ng/mL and 577.7 ng/mL"
same,[Par. Cmp. A],"[2]; 1 hr after oral Example Compound 35 20 mg/kg, individual rats","1,064.4 ng/mL and 2,455.1 ng/mL and 3,237.2 ng/mL"
same,[Par. Cmp. A],"[2]; 2 hr after oral Example Compound 35 20 mg/kg, individual rats","2,398.5 ng/mL and 1,930.2 ng/mL"
same,[Par. Cmp. A],"[2]; 4 hr after oral Example Compound 35 20 mg/kg, individual rats","1,004.3 ng/mL and 2,254.2 ng/mL and 177.4 ng/mL"
same,[Par. Cmp. A],"[2]; 8 hr after oral Example Compound 35 20 mg/kg, individual rats",41.0 ng/mL and 378.5 ng/mL and 15.9 ng/mL
